Converted amounts (≈) assume the structure as drawn. Like-named read-outs stand apart in the source and are kept apart here.
Columns and labels:
E. coli NMI 3371/16 = assay type: cell-based, Escherichia coli; details: NMI 3371/16, 20 h
Method: (§1) MIC values of the peptidomimetics were evaluated by using the modified Hancock lab protocol in non-binding polystyrene microtiter plates. Bacterial suspensions of ~5 × 10^5 CFU/mL in Mueller-Hinton broth (Difco, Sparks, MD, USA) were prepared with Mg^2+ and Ca^2+ concentrations of 4 mg/L each. The compounds were dissolved in H2O and diluted in 0.01% acetic acid, 0.2% BSA (final concentration). Aliquots (11 µL) of test compounds were then transferred to wells containing bacterial suspensions (100 µL). Low-binding sterile tubes and tips (Axygen, Union City, CA, USA) were used for preparation and transfer of the solutions of the compounds. Following incubation for 20 h of the covered plates at 35 °C (±2 °C) with circular shaking at 180 rpm, the MICs were read.

E. coli NMI 3898/15 = assay type: cell-based, Escherichia coli; details: NMI 3898/15, 20 h
Method: as §1

E. coli ATCC 25922 = assay type: cell-based, Escherichia coli; details: ATCC 25922, 20 h
Method: as §1

E. faecalis ATCC 29212 = assay type: cell-based; details: ATCC 29212, 20 h
Method: as §1

K. pneumoniae ATCC 13883 = assay type: cell-based
Method: as §1

[1] = Estimation of log D values (n-octanol/PBS pH 7.4, LC-MS, log Dmax from LOQ); assay type: physicochemical; details: n-octanol/PBS pH 7.4, 25 °C; indicative threshold from LOQ in octanol phase
Method: A phosphate buffered saline (PBS) pH 7.4 was prepared and then saturated with n-octanol. Likewise, an n-octanol solution saturated with pH 7.4 PBS buffer was also prepared. Both solutions were shaken for 24 h, and then left for 24 h in a separating funnel to ensure complete separation of the two phases. This provided an aqueous phase (PBS buffer saturated with n-octanol) and an n-octanol phase (saturated with PBS buffer).
Samples for log D determination were prepared as following: All compounds were dissolved in PBS buffer at a concentration 4 mg/mL, which was used as stock solutions. PBS-saturated n-octanol (1.0 mL), n-octanol-saturated PBS (0.76 mL) and sample stock solution (0.24 mL) were placed into a 4-mL clear glass vial and incubated on Biosan Thermo Shaker TS-100 at 1000 rpm and 25 °C. For optimization of the assay, the incubation time was varied from 5 h to 48 h. […] After incubation samples were centrifugated and left for 30 min to ensure complete separation of the phases. The distribution coefficient was determined by quantification of the compounds both in the aqueous and n-octanol phases. Then, 100 µL of each phase were transferred to 1.5 mL champagne glass vial and evaporated using a GeneVac EZ-2 PLUS evaporation instrument. Before LC-MS analysis samples were diluted with 200 µL MeCN–0.1% aqueous formic acid (1:1, v/v).
LC-MS was performed on Acquity UPLC chromatograph coupled with a MICROMASS QUATTRO micro^TM API tandem mass spectrometer. The mass spectrometer was operated in positive electrospray ionisation mode. Parameter settings were as follows: desolvation gas (N2) flow was 600 L/h; desolvation gas temperature was 400 °C; capillary voltage, 3.30 kV; ion source temperature was 120 °C. Initial data acquisition was carried out in full-scan mode to select the most abundant ions of the individual compounds.
Waters Acquity UPLC column BEH C18 (2.1 × 50 mm, 1.7 µm particle size) was applied for analysis. Acetonitrile and 0.1% aqueous formic acid mixtures were used as mobile phase at a flow rate of 0.4 mL/min with the following gradient: 0.0–2.5 min 5–98% MeCN, 2.5–3.5 min 98% MeCN. Injection volume was 2 µL.
Limit of quantitation (LOQ) was determined using S/N ratio for each compound and used for log Dmax calculations according to the following equation:(2) log Dmax = log (theoretical peak area of n-octanol phase at LOQ concentration/peak area of buffer base) Theoretical peak area at LOQ was calculated according to the calibration curve for each compound.

Row | Structure (SMILES) | MIC, E. coli NMI 3371/16 (E. coli NMI 3371/16) [µg/mL] | MIC, E. coli NMI 3898/15 (E. coli NMI 3898/15) [µg/mL] | MIC, EC (E. coli ATCC 25922) [µg/mL] | MIC, EF (E. faecalis ATCC 29212) [µg/mL] | MIC, KP (K. pneumoniae ATCC 13883) | log Dmax [1] | MIC, KP (K. pneumoniae ATCC 13883; ATCC 13883, 20 h) [µg/mL] | MIC against E. coli (E. coli ATCC 25922) [µM]
1 | NCCCC[C@H](NC(=O)CCN(Cc1ccc(F)cc1)C(=O)[C@H](CCCCN)NC(=O)CCN(Cc1ccc(F)cc1)C(=O)[C@H](CCCCN)NC(=O)CCN(Cc1ccc(F)cc1)C(=O)[C@H](CCCCN)NC(=O)CCN(Cc1ccc(F)cc1)C(=O)[C@H](CCCCN)NC(=O)CCN(Cc1ccc(F)cc1)C(=O)[C@@H](N)CCCCN)C(=O)N(CCC(N)=O)Cc1ccc(F)cc1 [Compound 1, H-[Lys-βNPhe(4-F)]6-NH2] | 8 (≈ 4.3 µM) | 8 (≈ 4.3 µM) | 4 to 8 | >64 | 64–>64 | < −2.662 | – | –
2 | NCCCC[C@H](NC(=O)CCN(Cc1ccc(F)cc1)C(=O)[C@H](CCCCN)NC(=O)CCN(Cc1ccc(F)cc1)C(=O)[C@H](CCCCN)NC(=O)COCCOCCNC(=O)CCN(Cc1ccc(F)cc1)C(=O)[C@H](CCCCN)NC(=O)CCN(Cc1ccc(F)cc1)C(=O)[C@H](CCCCN)NC(=O)CCN(Cc1ccc(F)cc1)C(=O)[C@@H](N)CCCCN)C(=O)N(CCC(N)=O)Cc1ccc(F)cc1 [Compound 7, H-[X]3-sPEG2-[X]3-NH2] | 4 (≈ 1.99 µM) | 8 (≈ 3.99 µM) | 4 (≈ 1.99 µM) | – | – | < −3.650 | >64 | –
3 | NCCCC[C@H](NC(=O)CCN(Cc1ccc(F)cc1)C(=O)[C@H](CCCCN)NC(=O)CCN(Cc1ccc(F)cc1)C(=O)[C@H](CCCCN)NC(=O)CCOCCOCCOCCOCCNC(=O)CCN(Cc1ccc(F)cc1)C(=O)[C@H](CCCCN)NC(=O)CCN(Cc1ccc(F)cc1)C(=O)[C@H](CCCCN)NC(=O)CCN(Cc1ccc(F)cc1)C(=O)[C@@H](N)CCCCN)C(=O)N(CCC(N)=O)Cc1ccc(F)cc1 [Compound 9, H-[X]3-sPEG4-[X]3-NH2] | 4 to 8 | 16 (≈ 7.59 µM) | 4 (≈ 1.9 µM) | >64 | – | < −3.627 | >64 | –
4 | NCCCC[C@H](NC(=O)CCN(Cc1ccc(F)cc1)C(=O)[C@H](CCCCN)NC(=O)CCN(Cc1ccc(F)cc1)C(=O)[C@H](CCCCN)NC(=O)CCOCCOCCOCCOCCOCCOCCNC(=O)CCN(Cc1ccc(F)cc1)C(=O)[C@H](CCCCN)NC(=O)CCN(Cc1ccc(F)cc1)C(=O)[C@H](CCCCN)NC(=O)CCN(Cc1ccc(F)cc1)C(=O)[C@@H](N)CCCCN)C(=O)N(CCC(N)=O)Cc1ccc(F)cc1 [Compound 10, H-[X]3-sPEG6-[X]3-NH2] | 4 to 16 | 8 to 32 | 4 to 8 | >64 | – | < −2.994 | 64 (≈ 29.1 µM) | –
5 | NCCCC[C@H](NC(=O)CCN(Cc1ccc(F)cc1)C(=O)[C@H](CCCCN)NC(=O)CCN(Cc1ccc(F)cc1)C(=O)[C@H](CCCCN)NC(=O)COCCN)C(=O)N(CCC(=O)NCCOCC(=O)N[C@@H](CCCCN)C(=O)N(CCC(=O)N[C@@H](CCCCN)C(=O)N(CCC(=O)N[C@@H](CCCCN)C(=O)N(CCC(=O)NCCOCC(N)=O)Cc1ccc(F)cc1)Cc1ccc(F)cc1)Cc1ccc(F)cc1)Cc1ccc(F)cc1 [Compound 11, H-sPEG1-[X]3-sPEG1-[X]3-sPEG1-NH2] | 8 (≈ 3.7 µM) | 16 (≈ 7.39 µM) | 8 (≈ 3.7 µM) | >64 | – | < −2.876 | >64 | –
6 | NCCCC[C@H](NC(=O)CCN(Cc1ccc(F)cc1)C(=O)[C@H](CCCCN)NC(=O)CCN(Cc1ccc(F)cc1)C(=O)[C@H](CCCCN)NC(=O)COCCOCCN)C(=O)N(CCC(=O)NCCOCCOCC(=O)N[C@@H](CCCCN)C(=O)N(CCC(=O)N[C@@H](CCCCN)C(=O)N(CCC(=O)N[C@@H](CCCCN)C(=O)N(CCC(=O)NCCOCCOCC(N)=O)Cc1ccc(F)cc1)Cc1ccc(F)cc1)Cc1ccc(F)cc1)Cc1ccc(F)cc1 [Compound 12, H-sPEG2-[X]3-sPEG2-[X]3-sPEG2-NH2] | 8 (≈ 3.48 µM) | 16 (≈ 6.97 µM) | 8 to 16 | >64 | – | < −3.147 | >64 | –
7 | NCCCC[C@H](NC(=O)CCN(Cc1ccc(F)cc1)C(=O)[C@H](CCCCN)NC(=O)CCN(Cc1ccc(F)cc1)C(=O)[C@H](CCCCN)NC(=O)COCCOCCOCCN)C(=O)N(CCC(=O)NCCOCCOCCOCC(=O)N[C@@H](CCCCN)C(=O)N(CCC(=O)N[C@@H](CCCCN)C(=O)N(CCC(=O)N[C@@H](CCCCN)C(=O)N(CCC(=O)NCCOCCOCCOCC(N)=O)Cc1ccc(F)cc1)Cc1ccc(F)cc1)Cc1ccc(F)cc1)Cc1ccc(F)cc1 [Compound 13, H-sPEG3-[X]3-sPEG3-[X]3-sPEG3-NH2] | 8 (≈ 3.29 µM) | 16 (≈ 6.59 µM) | 8 to 16 | >64 | – | < −3.911 | >64 | –
8 | NCCCC[C@H](NC(=O)CCN(Cc1ccc(F)cc1)C(=O)[C@H](CCCCN)NC(=O)CCN(Cc1ccc(F)cc1)C(=O)[C@H](CCCCN)NC(=O)CCOCCOCCOCCOCCN)C(=O)N(CCC(=O)NCCOCCOCCOCCOCCC(=O)N[C@@H](CCCCN)C(=O)N(CCC(=O)N[C@@H](CCCCN)C(=O)N(CCC(=O)N[C@@H](CCCCN)C(=O)N(CCC(=O)NCCOCCOCCOCCOCCC(N)=O)Cc1ccc(F)cc1)Cc1ccc(F)cc1)Cc1ccc(F)cc1)Cc1ccc(F)cc1 [Compound 14, H-sPEG4-[X]3-sPEG4-[X]3-sPEG4-NH2] | 16 (≈ 6.15 µM) | 32 (≈ 12.3 µM) | 16 (≈ 6.15 µM) | >64 | – | < −2.883 | >64 | –
9 | NCCCC[C@H](NC(=O)CCN(Cc1ccc(F)cc1)C(=O)[C@H](CCCCN)NC(=O)COCCNC(=O)CCN(Cc1ccc(F)cc1)C(=O)[C@H](CCCCN)NC(=O)CCN(Cc1ccc(F)cc1)C(=O)[C@H](CCCCN)NC(=O)COCCNC(=O)CCN(Cc1ccc(F)cc1)C(=O)[C@H](CCCCN)NC(=O)CCN(Cc1ccc(F)cc1)C(=O)[C@@H](N)CCCCN)C(=O)N(CCC(N)=O)Cc1ccc(F)cc1 [Compound 15, H-[X]2-sPEG1-[X]2-sPEG1-[X]2-NH2] | 4 (≈ 1.94 µM) | 8 (≈ 3.88 µM) | 4 (≈ 1.94 µM) | >64 | 64–>64 | < −3.180 | – | –
10 | NCCCC[C@H](NC(=O)CCN(Cc1ccc(F)cc1)C(=O)[C@H](CCCCN)NC(=O)COCCOCCNC(=O)CCN(Cc1ccc(F)cc1)C(=O)[C@H](CCCCN)NC(=O)CCN(Cc1ccc(F)cc1)C(=O)[C@H](CCCCN)NC(=O)COCCOCCNC(=O)CCN(Cc1ccc(F)cc1)C(=O)[C@H](CCCCN)NC(=O)CCN(Cc1ccc(F)cc1)C(=O)[C@@H](N)CCCCN)C(=O)N(CCC(N)=O)Cc1ccc(F)cc1 [Compound 16, H-[X]2-sPEG2-[X]2-sPEG2-[X]2-NH2] | 4 (≈ 1.86 µM) | 8 (≈ 3.72 µM) | 2 to 4 | >64 | – | < −3.922 | 64 (≈ 29.7 µM) | 0.7 to 1.4

Reference: PMC8268887, “Peptide/β-Peptoid Hybrids with Ultrashort PEG-Like Moieties: Effects on Hydrophobicity, Antibacterial Activity and Hemolytic Properties” (International Journal of Molecular Sciences, 2021)
